Several values for one entry are separate records, joined by “and”; a condition that tells them apart may be missing. Equal values may be shown once.
Tested on: A498 complex spheroids with HUVEC/MSC, growth
Assay: Anticancer human tumor A498 cell line growth inhibition [AhR];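 also: seven day exposure starting three days after spheroid seeding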;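 as to viability, T/C: luminescence signal used as a surrogate for viable cells; luminescence viability scaled so 100% equals DMSO vehicle wells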
Conditions: for viability, T/C: stronger effect = lower value
Description: Multicellular complex tumor spheroid response to aryl hydrocarbon receptor antagonists in combination with a variety of drugs and investigational agents in selected tumor cell lines
The current study was undertaken to assess response to aryl hydrocarbon receptor antagonists in combination with standard-of-care drugs and investigational agents in solid tumor complex spheroid models. Complex spheroids include a stromal component modeled by human endothelial cells (HUVEC) and fibroblasts modeled by human mesenchymal stem cells (MSCs). The concentration ranges selected for each drug and investigational agent were based upon clinically achievable concentrations if the clinical Cmax of the agent was known.
Compounds. The drugs and investigational agents: BAY 2416964 (NSC825713), GNF351 (NSC835774), CH-223191 (NSC835775), CPI-455 (NSC825282), aza-TdCyd (NSC777586), decitabine (NSC127716), belinostat (NSC758774), entinostat (NSC756642), pevonedistat (NSC761192), tazemetostat (NSC777109), talazoparib (NSC765396), olaparib (NSC753686), selinexor (NSC780203), nedisertib (M3814, NSC802822), bortezomib (NSC756655), venetoclax (NSC766270), doxorubicin (NSC123127), elimusertib (BAY189344, NSC800525), ceralasertib (AZD6738, NSC777638), TAK-243 (NSC785004), alisertib (NSC759677), etoposide (NSC141540), topotecan (NSC609699), eribulin (NSC707389), gemcitabine (NSC613327), carboplatin (NSC241240), cisplatin (NSC119875), and SN-38 (NSC673596) were obtained from the National Cancer Institute (NCI) Developmental Therapeutics Program Chemical Repository (32). The FDA-approved anticancer drug set is available from the Developmental Therapeutics Program at https://dtp.cancer.gov/organization/dscb/obtaining/available plates.htm. […] The stock solutions were prepared in dimethyl sulfoxide (DMSO, Sigma-Aldrich, St. Louis, MO, cat. D2650), except for the platinum compounds which were prepared in saline (Quality Biological, Gaithersburg, MD, cat. 114-055-101), at 800-fold the tested concentration and stored at -70 degrees C prior to their use. All drugs and investigational agents were tested over a range starting from a high concentration at or near the clinical Cmax and decreasing in half-log increments. If the clinical Cmax for an agent had not been determined, the highest concentration tested was 10 microM (Table 1).
Cell Culture. All cells were maintained in an incubator at 37 degrees C and 5% CO2 with 95% humidity. The PDC lines were cultured according to standard operating procedures established by the NCI PDMR (https://pdmr.cancer.gov). Briefly, all PDCs were thawed and cultured in Matrigel-coated flasks prepared with a working solution of 1X Ham's F-12 nutrient mix, without supplementation (Invitrogen, Waltham, MA, cat. 11765054), 100 U/mL penicillin-streptomycin (Invitrogen, cat. 15140122), and 2.5% Matrigel (Corning Inc., Corning, NY, cat. 354248) for the first three passages. All PDCs were cultured in complete DMEM/F-12 media containing advanced DMEM/F-12 (Invitrogen, cat. 12634028), 4.9% defined fetal bovine serum, heat inactivated (HyClone Laboratories Inc., Logan, UT, cat. SH30070.03HI), 389 ng/mL hydrocortisone (Sigma-Aldrich, cat. H4001), 9.7 ng/mL human EGF recombinant protein (Invitrogen, cat. PHG0313), 23.4 microg/mL adenine (Sigma-Aldrich, cat. A2786), 97.3 U/mL penicillin-streptomycin (Invitrogen, cat. 15140122), 1.9 mM L-glutamine (Invitrogen, cat. 25030081), and 9.7 microM Y-27632 dihydrochloride (Tocris Bioscience, Bristol, United Kingdom, cat. 1254). The PDCs were cultured in complete DMEM/F12 media without 10 microM Y-27632 dihydrochloride for at least two passages prior to the screen. The established cell lines NCI-H1341 and […] were cultured in DMEM/F-12, HEPES (Invitrogen, cat. 11330032), 5% defined fetal bovine serum (HyClone Laboratories Inc., cat. SH30070.03), ITS premix universal culture supplement [insulin (5 microg/mL), transferrin (5 microg/mL), and selenious acid (5 ng/mL)] […]

[1] = curve of first compound, second compound 0.1 µM
[2] = curve of first compound, second compound 0.316 µM
[3] = curve of first compound, second compound 1 µM
[4] = curve of first compound, second compound 3.16 µM
[5] = curve of first compound, second compound 10 µM
[6] = second compound 0.1 µM, first compound 0.0316 µM
[7] = second compound 0.1 µM, first compound 0.1 µM
[8] = second compound 0.1 µM, first compound 0.316 µM
[9] = second compound 0.1 µM, first compound 1 µM
[10] = second compound 0.316 µM, first compound 0.0316 µM
[11] = second compound 0.316 µM, first compound 0.1 µM
[12] = second compound 0.316 µM, first compound 0.316 µM
[13] = second compound 0.316 µM, first compound 1 µM
[14] = second compound 1 µM, first compound 0.0316 µM
[15] = second compound 1 µM, first compound 0.1 µM
[16] = second compound 1 µM, first compound 0.316 µM
[17] = second compound 1 µM, first compound 1 µM
[18] = second compound 3.16 µM, first compound 0.0316 µM
[19] = second compound 3.16 µM, first compound 0.1 µM
[20] = second compound 3.16 µM, first compound 0.316 µM
[21] = second compound 3.16 µM, first compound 1 µM
[22] = second compound 10 µM, first compound 0.0316 µM
[23] = second compound 10 µM, first compound 0.1 µM
[24] = second compound 10 µM, first compound 0.316 µM
[25] = second compound 10 µM, first compound 1 µM
[26] = second compound 0.1 µM, first compound 3.16 µM
[27] = second compound 0.1 µM, first compound 10 µM
[28] = second compound 0.316 µM, first compound 3.16 µM
[29] = second compound 0.316 µM, first compound 10 µM
[30] = second compound 1 µM, first compound 3.16 µM
[31] = second compound 1 µM, first compound 10 µM
[32] = second compound 3.16 µM, first compound 3.16 µM
[33] = second compound 3.16 µM, first compound 10 µM
[34] = second compound 10 µM, first compound 3.16 µM
[35] = second compound 10 µM, first compound 10 µM

Row | Compound | IC50 [1] | IC50 [2] | IC50 [3] | IC50 [4] | IC50 [5] | viability, T/C [6] | viability, T/C [7] | viability, T/C [8] | viability, T/C [9] | viability, T/C [10] | viability, T/C [11] | viability, T/C [12] | viability, T/C [13] | viability, T/C [14] | viability, T/C [15] | viability, T/C [16] | viability, T/C [17] | viability, T/C [18] | viability, T/C [19] | viability, T/C [20] | other results
1 | CC1COCCN1c1cc(-c2ccnn2C)c2ccnc(-c3ccn[nH]3)c2n1 (centres undefined) + Cc1ccccc1N=Nc1ccc(NC(=O)c2ccnn2C)c(C)c1 | 21.9 nM | 50.3 nM | 84.9 nM | 97 nM | 84.7 nM | 49.7% | 34.2% | 25.1% | 15.7% | 58.8% | 33.9% | 17.8% | 17.8% | 74.7% | 47.4% | 16.4% | 12.9% | 84.3% | 47.9% | 20.8% | viability, T/C (second compound 0.1 µM, first compound 0.00316 µM): 71.7%; viability, T/C (second compound 0.1 µM, first compound 0.01 µM): 54.4%; viability, T/C (second compound 0.316 µM, first compound 0.00316 µM): 71.2%; viability, T/C (second compound 0.316 µM, first compound 0.01 µM): 86.6%; viability, T/C (second compound 1 µM, first compound 0.00316 µM): 87.5%; viability, T/C (second compound 1 µM, first compound 0.01 µM): 94.8%; viability, T/C (second compound 3.16 µM, first compound 0.00316 µM): 94.7%; viability, T/C (second compound 3.16 µM, first compound 0.01 µM): 87.7%; viability, T/C [21]: 11.1%; viability, T/C (second compound 10 µM, first compound 0.00316 µM): 90.1%; viability, T/C (second compound 10 µM, first compound 0.01 µM): 87.1%; viability, T/C [22]: 69.9%; viability, T/C [23]: 47.6%; viability, T/C [24]: 23.1%; viability, T/C [25]: 13.9%
2 | NS(=O)(=O)OCC1CC(n2ccc3c(NC4CCc5ccccc54)ncnc32)CC1O (centres undefined) | – | – | – | – | – | – | – | – | – | – | – | – | – | – | – | – | – | – | – | – | viability, T/C (compound 0.0316 µM): 96.3% and 93.7% and 99.8%; viability, T/C (compound 0.1 µM): 93.4% and 87.1% and 85.3%; viability, T/C (compound 0.316 µM): 56.3% and 53.1% and 37.4%; viability, T/C (compound 1 µM): 34.4% and 34.5% and 28.6%; viability, T/C (compound 3.16 µM): 23.7% and 26.2% and 21.3%; viability, T/C (compound 10 µM): 16.6% and 20% and 16.1%; IC50 (curve of compound): 474 nM and 421 nM and 239 nM
3 | COc1cccc2c1C(=O)c1c(O)c3c(c(O)c1C2=O)CC(O)(C(=O)CO)CC3OC1CC(N)C(O)C(C)O1 (centres undefined) | – | – | – | – | – | – | – | – | – | – | – | – | – | – | – | – | – | – | – | – | viability, T/C (compound 0.0316 µM): 67.3% and 67.5% and 58.1%; viability, T/C (compound 0.1 µM): 70.1% and 60.3% and 55.9%; viability, T/C (compound 0.316 µM): 56.7% and 50.1% and 38.2%; viability, T/C (compound 1 µM): 23.9% and 24.6% and 18.1%; viability, T/C (compound 3.16 µM): 1.61% and 1.62% and 1.55%; viability, T/C (compound 10 µM): 0.78% and 0.83% and 0.85%; IC50 (curve of compound): 409 nM and 319 nM and 140 nM
4 | COc1cc(Nc2ncc3c(n2)-c2ccc(Cl)cc2C(c2c(F)cccc2OC)=NC3)ccc1C(=O)O + Cc1cncc(-c2nc(NCCc3c[nH]c4ccccc34)c3ncn(C(C)C)c3n2)c1 | 1460 nM | 1790 nM | 918 nM | 418 nM | < 31.6 nM | 68.9% | 72% | 64% | 51.5% | 71.9% | 67.8% | 69.6% | 54% | 71.2% | 71.4% | 62.4% | 47.4% | 56.9% | 58% | 52.2% | viability, T/C [26]: 44.2%; viability, T/C [27]: 32.4%; viability, T/C [28]: 45.3%; viability, T/C [29]: 35%; viability, T/C [30]: 41.4%; viability, T/C [31]: 33.4%; viability, T/C [21]: 42.3%; viability, T/C [32]: 35.3%; viability, T/C [33]: 30.5%; viability, T/C [22]: 4.64%; viability, T/C [23]: 6.08%; viability, T/C [24]: 4.95%; viability, T/C [25]: 4.83%; viability, T/C [34]: 4.84%; viability, T/C [35]: 6.67%
5 | CC1COCCN1c1cc(C2(S(C)(=N)=O)CC2)nc(-c2ccnc3[nH]ccc23)n1 (centres undefined) + Cc1cncc(-c2nc(NCCc3c[nH]c4ccccc34)c3ncn(C(C)C)c3n2)c1 | 3550 nM | 2690 nM | 2260 nM | < 31.6 nM | < 31.6 nM | 97.8% | 98.7% | 90.4% | 81.9% | 94.9% | 102% | 96.3% | 78.5% | 86.8% | 92% | 87.5% | 68.2% | 37.1% | 37.2% | 39.5% | viability, T/C [26]: 52.5%; viability, T/C [27]: 23.1%; viability, T/C [28]: 45.7%; viability, T/C [29]: 27.5%; viability, T/C [30]: 42.9%; viability, T/C [31]: 23.4%; viability, T/C [21]: 35.5%; viability, T/C [32]: 33.9%; viability, T/C [33]: 21.9%; viability, T/C [22]: 4.97%; viability, T/C [23]: 6.89%; viability, T/C [24]: 5.25%; viability, T/C [25]: 5.47%; viability, T/C [34]: 5.09%; viability, T/C [35]: 9.27%
6 | O=C(C=Cc1cccc(S(=O)(=O)Nc2ccccc2)c1)NO + Cc1ccccc1N=Nc1ccc(NC(=O)c2ccnn2C)c(C)c1 | 1950 nM | 2020 nM | 1850 nM | 1450 nM | 1790 nM | 84.2% | 88.4% | 72% | 56.9% | 95.6% | 87.5% | 75.2% | 59.5% | 82.4% | 82.7% | 68.2% | 54.6% | 85.5% | 80.9% | 63% | viability, T/C [26]: 45.4%; viability, T/C [27]: 19.8%; viability, T/C [28]: 46.3%; viability, T/C [29]: 20.1%; viability, T/C [30]: 47%; viability, T/C [31]: 18.3%; viability, T/C [21]: 55.7%; viability, T/C [32]: 42.4%; viability, T/C [33]: 18.8%; viability, T/C [22]: 80.2%; viability, T/C [23]: 75.7%; viability, T/C [24]: 71.1%; viability, T/C [25]: 55.1%; viability, T/C [34]: 43.9%; viability, T/C [35]: 17.5%

From PubChem BioAssay AID1919007 (Molecular Pharmacology Branch, DTP, NCI, 2023)
